In one experiment the target is Cannabinoid receptor 2 (Mus musculus, UniProt P47936). As to the kind of experiment: Binding affinity towards Cannabinoid receptor 2 in mouse spleen membranes. The class given is cell membranes.
A further experiment concerns the target Cannabinoid receptor 1 (Rattus norvegicus, UniProt P20272). As to the kind of experiment: Binding affinity towards cannabinoid receptor 1 in rat forebrain membranes. The class given is cell membranes.

pKi: −log10 of the molar value.

Cannabinoid receptor 1, sequence (P20272 whole entry): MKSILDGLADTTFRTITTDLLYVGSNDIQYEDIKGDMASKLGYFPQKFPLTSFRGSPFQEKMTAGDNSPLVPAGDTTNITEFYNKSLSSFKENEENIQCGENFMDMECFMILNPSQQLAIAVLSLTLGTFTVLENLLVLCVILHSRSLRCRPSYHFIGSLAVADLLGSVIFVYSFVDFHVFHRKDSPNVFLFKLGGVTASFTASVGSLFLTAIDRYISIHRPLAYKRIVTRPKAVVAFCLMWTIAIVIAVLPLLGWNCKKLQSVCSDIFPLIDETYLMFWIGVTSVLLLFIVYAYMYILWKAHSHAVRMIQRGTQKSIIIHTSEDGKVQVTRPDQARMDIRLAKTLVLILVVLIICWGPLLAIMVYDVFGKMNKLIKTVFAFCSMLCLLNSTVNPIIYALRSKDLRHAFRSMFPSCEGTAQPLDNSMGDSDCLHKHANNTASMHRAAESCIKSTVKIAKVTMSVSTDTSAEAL
Cannabinoid receptor 2, sequence (P47936 whole entry): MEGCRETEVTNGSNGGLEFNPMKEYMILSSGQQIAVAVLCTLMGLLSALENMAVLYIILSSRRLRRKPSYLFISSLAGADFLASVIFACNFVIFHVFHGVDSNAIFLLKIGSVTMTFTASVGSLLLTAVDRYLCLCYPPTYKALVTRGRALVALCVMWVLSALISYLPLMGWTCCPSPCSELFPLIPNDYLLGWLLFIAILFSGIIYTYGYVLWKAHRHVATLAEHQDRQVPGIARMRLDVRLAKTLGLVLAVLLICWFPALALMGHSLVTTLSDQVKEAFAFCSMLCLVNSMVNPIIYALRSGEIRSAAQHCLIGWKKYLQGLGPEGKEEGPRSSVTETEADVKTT

One may read the pKi as the negative decadic logarithm of the Ki, by convention in mol/L. `CCCCCCCc1cc(O)c2c(c1)OC(C)(C)[C@@H]1CC=C(C)C[C@@H]21`: the negative logarithm of the Ki (pKi) is 9.41 on Cannabinoid receptor 2 and 9.37 on Cannabinoid receptor 1.

`CCCCCC1CCc2c(cc3c(c2O)[C@@H]2CC(C)=CC[C@H]2C(C)(C)O3)C1` (stereo partly drawn): the negative logarithm of the Ki (pKi) at Cannabinoid receptor 2 was 6.79; on Cannabinoid receptor 1, 6.40.

For the compound `CCCCCCC1CCCc2c1cc1c(c2O)[C@@H]2CC(C)=CC[C@H]2C(C)(C)O1` (stereo partly drawn), the results for the pKi on Cannabinoid receptor 2 and on Cannabinoid receptor 1 were 7.23 and 7.65, respectively.

Regarding `CCCCCCC1CCCc2c1cc(O)c1c2OC(C)(C)[C@@H]2CC=C(C)C[C@@H]12` (stereo partly drawn), the negative logarithm of the Ki (pKi) is 6.34 on Cannabinoid receptor 2 and 6.27 on Cannabinoid receptor 1.
